# Data as given in patent US10495560B2, “Method of screening drugs” (KOREA RESEARCH INSTITUTE OF STANDARDS AND SCIENCE, priority 2015, dated 2019).
# Columns and labels:
# [1] = test system: ARPE-19 human retinal epithelial cells; test: Blind test: screening of drugs by capacitance of the cell layer; format: cell-based
# Description: After culturing ARPE-19 (retinal pigmented epithelium, American Type Culture Collection (ATCC), ATCC® CRL-2302™), which is human retinal epithelial cells, instead of bEND.3 similarly to the case of using bEND.3, the cultured ARPE-19 was seeded in the same sensor as that used at the time of measuring bEND.3 so that coverage was 100%. Then, stabilization (fixation) was performed under the same conditions and time as those at the time of stabilizing bEND.3.
# After the cells were cultured for stabilization for 24 hours, the culture medium was exchanged.
# As the exchanged medium, a reference culture medium containing tumor necrosis factor-alpha (TNF-α, R&D system, 210-TA-020/CF, 10 ng/ml) or a reference culture medium containing tumor necrosis factor-alpha (TNF-α, R&D system, 210-TA-020/CF 10 ng/ml) and TNF-α antibody (Human TNF-alpha MAb, R&D system, MAB610, 2 μg/ml) was prepared. In this case, as the reference culture medium, DMEM:F12 containing 1 vol % penicillin-streptomycin (Gibco) was used similarly to the case of using bEND.3.
# After stabilization was performed, medium exchange was randomly performed on each well using the prepared culture media. In this case, medium exchange was performed on a well (reference sample) at a predetermined position using a pure reference culture medium not containing TNF-α or TNF-α antibody, such that a frequency-dependent reference capacitance value at each measurement time was also simultaneously obtained.
# Capacitance was measured under the same conditions and the same time interval as those in the case of using bEND.3.
# After measurement was performed, in each well, in the case in which an absolute value of an alpha value at a time point (t=50 h based on stabilization) after 26 hours of medium exchange is smaller than an absolute value of a reference alpha value at the same time point, the drug was screened as a drug increasing paracellular permeability. […]
# [2] = test system: tight junction proteins (ZO-1) in ARPE-19 cells; test: Immunocytochemistry (ZO-1 and DAPI staining) after the blind test; format: cell-based, human; conditions: FIG. 9
# Description: After performing the screening, as described above, fluorescent staining (using ZO-1 and DAPI) was performed on the endothelial cell layer fixed between two electrodes using immunocytochemistry, and then the endothelial cell layer was observed. FIG. 9A illustrates results of the reference sample, FIG. 9B illustrates results of the sample of which the medium was exchanged with the medium containing TNF-α, and FIG. 9C illustrates results of the sample of which the medium was exchanged with the medium containing both of TNF-α and TNF-α antibody.
substance,measurement,setting,value
TNF-α,standardized capacitance value,"[1]; 100 Hz, standardized to start of stabilization, 48 hours after medium exchange (t=72 h), reference sample 1.44",1.31
same,time for which the standardized capacitance value was continuously decreased,"[1]; 100 Hz, based on a time point (t=34 h) after 10 hours of medium exchange",48 h
same,screening result (drug increasing paracellular permeability),"[1]; TNF-α 10 ng/ml, three independent criteria (alpha value at 26 h, standardized capacitance at 48 h, continuous decrease at 100 Hz)",screened as wells contacting the drug increasing paracellular permeability
same,alignment of tight junction proteins,[2],disturbed
